Results published in patent US20210301315A1, “METHODS FOR TREATING POLYMICROBIAL INFECTIONS” (priority 2017, published 2021).

Assays:
[1] = system: bacterial organisms present in patient urine sample; test: Antibiotic Resistance (ABR) assay utilizing agar-containing medium; type: cell-based; details: for overall sensitivity of the bacteria in the sample to the antibiotic (in words): Example 2 sample
Experimental: Urine samples suitable for processing with this assay are collected, transported, and stored using BD Vacutainer (gray top) tubes or other suitable leak-proof sterile container. Urine samples may be held at room temperature for 48 hours before test results are compromised.
Antibiotic stocks are stored at 2-8° C. and protected from direct sunlight. Prepared antibiotic stock solutions were aliquoted into a 96-deep well plate (Thermo Fisher Scientific) to form an Antibiotic Source Plate, as shown in FIG. 11 and identified by antibiotic name and concentration (μg/mL; 10× final concentration). […] One well was designated AB-blend which contained a combination of antibiotics to ensure there was no bacterial growth.
One hundred microliters of Mueller-Hinton agar medium was aliquoted into each appropriate well position of a 96-well microplate (VIS 96/F-PS, Eppendorf). The medium was allowed to solidify at room temperature for at least 10 min.
The antibiotics (10 μL) at various concentrations were then aliquoted into desired wells from the Antibiotic Source Plate. After the antibiotics were introduced to the agar medium, the ABR microplates were allowed to sit for at least 1 hr before use. If long-term storage is required, ABR microplates containing antibiotic-infuse agar are stored at 2-8° C. in the dark.
At the time of testing, urine samples were diluted 1:20 in sterile saline and vortexed. Each patient sample utilized a single ABR microplate. Five microliters of diluted patient sample were added to each well of the room temperature microplate, the plate was sealed and incubated for 16-18 hr at 37° C.
After incubation, the plate was removed from the incubator and carefully uncovered. Two-hundred microliters of deionized water were added to each well to suspend cells present above the agar and the plates incubated at room temperature for 30 min. After 30 min, 100 μl from each well was removed to a new plate and the OD600 was determined in a spectrophotometer. Five separate reads were taken of each plate and a mean OD600 measurement calculated.
Controls include: No-antibiotic control, Negative control plate, and AB-Blend. No antibiotic control: Any well containing medium that is not infused with antibiotics to ensure viability of bacterial cells present in patient urine samples and included in each plate. […] Negative control plate: Microplate containing antibiotic-infused agar medium without addition of patient sample or cultured bacterial organisms to ensure non-contamination of reagents. AB-Blend: One or more wells containing a combination of antibiotics to ensure there is no bacterial growth.
The raw data was then “blanked” using the measurement obtained from the AB-Blend well, as depicted in Table 5.
(§1) To determine whether bacterial organisms present in the patient samples were resistant or sensitive to a particular antibiotic at a certain concentration, blanked OD readings were compared to a threshold OD600 of 0.025 (Table 6). Any OD measurement greater than or equal to this threshold was designated Resistant (R) meaning bacterial organisms present in patient sample were resistant to that particular antibiotic at that certain concentration. Any OD measurement less than this threshold was designated Sensitive (S) meaning bacterial organisms present in patient sample were sensitive to that particular antibiotic at that certain concentration.

[2] = system: bacterial organisms present in patient urine sample; test: Antibiotic Resistance (ABR) assay utilizing liquid growth medium; type: cell-based; details: liquid medium; for overall sensitivity of the bacteria in the sample to the antibiotic (in words): Example 4 sample
Experimental: Urine samples suitable for processing with this assay are collected, transported, and stored using BD Vacutainer tubes or other suitable leak-proof sterile containers. Urine samples may be held at room temperature for 48 hours before test results are compromised.
Antibiotic stocks are stored at 2-8° C. and protected from direct sunlight. Prepared antibiotic stock solutions were aliquoted into a 96-deep well plate (ThermoFisher Scientific) to form a 50× Antibiotic Source Plate and then diluted 1:5 to form a 10× Antibiotic Source Plate, as shown in FIG. 12 where each well is identified by antibiotic name and concentration (μg/mL; 10× final concentration). […] One well was assigned sodium azide to ensure no bacterial growth would be observed in that well.
Twenty microliters of each antibiotic solution were aliquoted into the pre-determined wells of a 96-well microplate (VIS 96/F-PS, Eppendorf) from the 10× Antibiotic Source Plate to create ABR testing plates for inoculation. These ABR testing plates were allowed to sit for up to 24 hours before use at 2-8° C. in the dark.
At the time of testing, urine samples were centrifuged to concentrate any bacterial cells and then mixed with liquid Mueller-Hinton medium and incubated for 6-16 hours at 37° C. After this initial incubation, the sample is diluted to 0.5-0.6 McF in saline and then 500 μl of that suspension was added to […] of Mueller-Hinton medium. One-hundred and eighty microliters of the diluted sample is then aliquoted to each well of the ABR microplate already containing 10× antibiotic solution, bringing all of the antibiotics to the desired final concentration. The plate is then sealed and incubated for 12-16 hours at 37° C.
After incubation, the plate was removed from the incubator and carefully uncovered and the OD600 was determined for each appropriate well by spectrophotometer. Five separate measurements were taken of each well on a plate and the mean OD600 measurement calculated for each well.
Controls are depicted in Table 10.
The raw data was then “blanked” using the measurement obtained from the Na-Azide well, as depicted in Table 14.
as §1, with “0.065” for “0.025”, “15). An” for “6). Any”

| SMILES | Blanked (OD600 minus AB-Blend well) ([1]; antibiotic 8 μg/mL) | Mean (OD600) ([1]; antibiotic 8 μg/mL) | Blanked (OD600 minus AB-Blend well) ([1]; antibiotic 16 μg/mL) | Mean (OD600) ([1]; antibiotic 16 μg/mL) | Blanked (OD600 minus AB-Blend well) ([1]; antibiotic 32 μg/mL) | Mean (OD600) ([1]; antibiotic 32 μg/mL) | Blanked (OD600 minus Na-Azide well) ([2]; antibiotic 8 μg/mL) | Mean (OD600) ([2]; antibiotic 8 μg/mL) | Blanked (OD600 minus Na-Azide well) ([2]; antibiotic 32 μg/mL) | Mean (OD600) ([2]; antibiotic 32 μg/mL) | overall sensitivity of the bacteria in the sample to the antibiotic (in words) [2] | overall sensitivity of the bacteria in the sample to the antibiotic (in words) [1] | Blanked (OD600 minus AB-Blend well) ([1]; antibiotic 4 μg/mL) | Mean (OD600) ([1]; antibiotic 4 μg/mL) | Blanked (OD600 minus Na-Azide well) ([2]; antibiotic 4 μg/mL) | Mean (OD600) ([2]; antibiotic 4 μg/mL) | Blanked (OD600 minus AB-Blend well) ([1]; antibiotic 1 μg/mL) | Mean (OD600) ([1]; antibiotic 1 μg/mL) | Blanked (OD600 minus Na-Azide well) ([2]; antibiotic 1 μg/mL) | Mean (OD600) ([2]; antibiotic 1 μg/mL) | also measured |
| --- | --- | --- | --- | --- | --- | --- | --- | --- | --- | --- | --- | --- | --- | --- | --- | --- | --- | --- | --- | --- | --- |
| CC1(C)S[C@@H]2[C@H](NC(=O)[C@H](N)c3ccccc3)C(=O)N2[C@H]1C(=O)O [Ampicillin, ampicillin] | 0.4496 | 0.4880 | 0.4838 | 0.5222 | 0.4440 | 0.4824 | −0.0040 | 0.0417 | −0.0039 | 0.0418 | sensitive | – | – | – | – | – | – | – | – | – | Blanked (OD600 minus Na-Azide well) ([2]; antibiotic 16 μg/mL): −0.0038; Mean (OD600) ([2]; antibiotic 16 μg/mL): 0.0419 |
| CO[C@@]1(NC(=O)Cc2cccs2)C(=O)N2C(C(=O)O)=C(COC(N)=O)CS[C@@H]21 [Cefoxitin, cefoxitin] | 0.0008 | 0.0392 | 0.0005 | 0.0389 | 0.0005 | 0.0389 | 0.1831 | 0.2288 | 0.1891 | 0.2348 | – | sensitive | 0.0017 | 0.0401 | 0.1745 | 0.2202 | – | – | – | – | – |
| CO/N=C(\C(=O)N[C@@H]1C(=O)N2C(C(=O)O)=C(CSc3nc(=O)c(=O)[nH]n3C)CS[C@H]12)c1csc(N)n1 [Ceftriaxone, ceftriaxone] | 0.0008 | 0.0392 | 0.0007 | – | 0.0002 | 0.0386 | 0.1992 | 0.2449 | – | – | – | sensitive | 0.0021 | 0.0405 | 0.1900 | 0.2357 | 0.0061 | 0.0445 | 0.2028 | 0.2485 | Blanked (OD600 minus AB-Blend well) ([1]; antibiotic 2 μg/mL): 0.0048; Mean (OD600) ([1]; antibiotic 2 μg/mL): 0.0432; Blanked (OD600 minus AB-Blend well) ([1]; antibiotic 64 μg/mL): 0.0001; Mean (OD600) ([1]; antibiotic 64 μg/mL): 0.0385; Blanked (OD600 minus Na-Azide well) ([2]; antibiotic 64 μg/mL): 0.1899; Mean (OD600) ([2]; antibiotic 64 μg/mL): 0.2356 |
| O=C(O)c1cn(C2CC2)c2cc(N3CCNCC3)c(F)cc2c1=O [Ciprofloxacin, ciprofloxacin] | – | – | – | – | – | – | – | – | – | – | sensitive | sensitive | 0.0003 | 0.0387 | −0.0034 | 0.0423 | 0.0024 | 0.0408 | −0.0016 | 0.0441 | Blanked (OD600 minus AB-Blend well) ([1]; antibiotic 2 μg/mL): 0.0030; Mean (OD600) ([1]; antibiotic 2 μg/mL): 0.0414 |
| C[C@@H](O)[C@H]1C(=O)N2C(C(=O)O)=C(S[C@@H]3CN[C@H](C(=O)N(C)C)C3)[C@H](C)[C@H]12 [Meropenem, meropenem] | 0.0001 | 0.0385 | – | – | – | – | 0.0039 | 0.0496 | – | – | – | sensitive | 0.0006 | 0.0390 | 0.1099 | 0.1556 | 0.0008 | 0.0392 | 0.1741 | 0.2198 | Blanked (OD600 minus AB-Blend well) ([1]; antibiotic 2 μg/mL): 0.0004; Mean (OD600) ([1]; antibiotic 2 μg/mL): 0.0388; Blanked (OD600 minus Na-Azide well) ([2]; antibiotic 2 μg/mL): 0.1471; Mean (OD600) ([2]; antibiotic 2 μg/mL): 0.1928 |
| CN[C@H](CC(C)C)C(=O)N[C@H]1C(=O)N[C@@H](CC(N)=O)C(=O)N[C@H]2C(=O)N[C@H]3C(=O)N[C@H](C(=O)N[C@H](C(=O)O)c4cc(O)cc(O)c4-c4cc3ccc4O)[C@H](O)c3ccc(c(Cl)c3)Oc3cc2cc(c3O[C@@H]2O[C@H](CO)[C@@H](O)[C@H](O)[C@H]2O[C@H]2C[C@](C)(N)[C@H](O)[C@H](C)O2)Oc2ccc(cc2Cl)[C@H]1O [Vancomycin, vancomycin] | – | – | – | 0.4918 | – | – | – | – | −0.0031 | 0.0426 | sensitive | – | – | – | −0.0032 | 0.0425 | – | – | 0.0047 | 0.0504 | Blanked (OD600 minus Na-Azide well) ([2]; antibiotic 2 μg/mL): −0.0022; Mean (OD600) ([2]; antibiotic 2 μg/mL): 0.0435; Blanked (OD600 minus Na-Azide well) ([2]; antibiotic 16 μg/mL): −0.0026; Mean (OD600) ([2]; antibiotic 16 μg/mL): 0.0431 |
